Results as given in PubChem BioAssay AID179 (DTP/NCI, 2004).
“And” between values parts separate entries of the source, which are not always exact repeats. Equal entries are not always repeated. The source made the active and inactive calls.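 Rule for the calls: active = compounds giving half or more protection of infected cells from virus-caused growth loss, again on retest; inactive = the rest.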 Where a SMILES comes first, the peptide text is derived from it. The star is where a group is joined. OSu = O=C1CCC(=O)N1O*; Bn = c1ccc(C*)cc1

Tested on: CEM cells HIV-1 protection, formazan growth assay
Assay: NCI AIDS Antiviral Assay
Conditions: for IC50: measured here: growth of uninfected CEM cells
Outline: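 Screen of anti-HIV-1 activity in human CEM cells using a formazan-based growth measurement at five drug concentrations. Hits with 50% or greater protection were repeated, and confirmation required reproducible complete protection.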

Row | Structure (SMILES) | EC50 | IC50 | outcome
1 | O=[N+]([O-])c1ccccc1P1(=O)OCCO1 | > 200 µM | > 200 µM | 
2 | C[N+](C)(N)c1nc(N)c(C#N)c(C#N)c1C#N | > 200 µM | 33.1 µM | 
3 | COC(=O)C1CCC(=O)N1C(c1ccc(OC)cc1)c1cc(OC)c(OC)c(OC)c1 (stereo not given) | > 2 µM | 0.1 µM | 
4 | CCOC(=O)C(=O)C(/C(=N/N(C)C)C(=O)Nc1ccc(C)cc1C)c1nc2ccccc2[nH]c1=O (stereo not given) | > 380 µM | 219 µM | 
5 | Cc1ccccc1N1C(N)=C(C#N)C(C#N)(C#N)C1c1ccccc1 (stereo not given) | > 200 µM | 12 µM | 
6 | O=c1nc2ccc3[nH]c(O)c4ccc1c2c34 | > 200 µM | 178 µM | 
7 | C=CCNC(=S)OCCCCCCCCCC |  |  | inactive
8 | CN(C)/N=C(/c1nc2ccc(Cl)cc2[nH]c1=O)C(O)c1ccc(C(O)/C(=N\N(C)C)c2nc3ccc(Cl)cc3[nH]c2=O)cc1 (stereo not given) | > 389 µM | 24 µM | 
9 | BrCc1ccc(C[P+](c2ccccc2)(c2ccccc2)c2ccccc2)cc1 | > 200 µM | 3.89 µM | 
10 | CCc1c(Sc2ccccn2)n(COCc2ccccc2)c(=O)[nH]c1=O | 91.2 µM | 339 µM | 
11 | O=c1c2cc([N+](=O)[O-])ccc2n2n1Cc1ccccc1CC2 | > 200 µM | > 200 µM | 
12 | C[C@]12CC[C@H](O)CC1CC[C@@H]1C2CC[C@]2(C)NC(=O)CCC12 (stereo not given in full) |  |  | inactive
13 | COc1ccc(/C(C#N)=C(/N)SCc2ccccc2Cl)cc1 |  |  | inactive
14 | O=[N+]([O-])c1[nH]cnc1S | > 200 µM | > 200 µM | 
15 | O=C(CCc1nc(=S)[nH][nH]1)Nc1cccc(C(F)(F)F)c1 | > 22.9 µM | > 22.9 µM | 
16 | N#CC1(c2ccccc2)C(c2ccccc2)CC(O)(c2ccccc2)C(C(=O)c2ccccc2)C1c1ccccc1 (stereo not given) | > 100 µM | 15.1 µM | 
17 | CCOC(=O)CC/C(C)=N\n1c(Cc2ccc(Cl)cc2)n[nH]c1=O |  |  | inactive
18 | CCCCCCCCCCCCCCCCCCNC(=O)c1ccccc1[Se][Se]c1ccccc1C(=O)NCCCCCCCCCCCCCCCCCC | > 0.794 µM | > 0.794 µM | 
19 | CCOC(=O)C1=C(Nc2ccc(Br)cc2)OCC1=O |  |  | inactive
20 | Nc1nc[n+](Cc2ccccc2)c2ncn(Cc3ccccc3)c12 | > 631 µM | 95.5 µM | 
21 | CN(C(=O)c1ccc(Cl)cc1)C(=S)N1CCN(c2ccccn2)CC1 | > 69.2 µM | 61.7 µM | 
22 | CCOc1ccccc1-n1c(-c2ccc([N+](=O)[O-])cc2)csc1=NC(=O)c1cccc([N+](=O)[O-])c1 | > 200 µM | 186 µM | 

Row | Structure (SMILES) | EC50 | IC50 | outcome
23 | CCOC(=O)c1cc(OC(C)=O)c2ccccc2c1 | > 100 µM | 95.5 µM | 
24 | C1=CCCC=CCC1.C[PH+](C)C.C[PH+](C)C.C[PH+](C)C.[Cl-].[Ir] |  |  | inactive
25 | Oc1ccc(-c2nc(-c3cccnc3)c(-c3ccc(F)cc3)[nH]2)cc1 | > 200 µM | 30.9 µM | 
26 | C=C1CC2(CCOc3ccc(Cl)cc32)OC1=O (stereo not given) | > 372 µM | 0.977 µM | 
27 | OCC1CC(F)C(n2cnc3c(NOCc4ccccc4)ncnc32)O1 (stereo not given) | > 100 µM | > 100 µM | 
28 | COc1cc2cc(C(=O)N3CC(CCl)c4c3cc([N+](C)(C)Cc3ccc([N+](=O)[O-])n3C)c3ccccc43)[nH]c2c(OC)c1OC (stereo not given) | > 2 µM | 1.26 µM | 
29 | Cc1cc(C)c2nccc(NCCCN(C)C)c2c1[N+](=O)[O-] | > 200 µM | 42.7 µM | 
30 | O=c1ccc2cc3ccoc3c(OCCCCCCCCCCCCOc3c4occc4cc4ccc(=O)oc34)c2o1 | > 38.9 µM | > 38.9 µM | 
31 | Cc1cc(=O)n2[nH]nnc2n1 | > 200 µM | > 200 µM | 
32 | O=S(=O)(OCCCCOS(=O)(=O)c1ccc(Cl)c(Cl)c1)c1ccc(Cl)c(Cl)c1 |  |  | inactive
33 | Cc1sc2ccccc2c2nc3ccccc3c1-2 |  |  | inactive
34 | Cc1cc2nc(=O)cc(CCl)n2c(=O)n1C(=O)C(O)C(O)C(O)CO (stereo not given) |  |  | inactive
35 | CC/C=C\C/C=C\C/C=C\CCCCCCCC(=O)OCC(O)CO (stereo not given) | > 28.2 µM | > 28.2 µM | 
36 | O=C1NS(=O)(=O)C2C(Cl)=C(Cl)C3(Cl)C2C13Cl (stereo not given) | > 776 µM | > 776 µM | 
37 | CCOC(=O)c1c(NC(=S)Nc2ccc(Cl)cc2)sc2c1CCN(C)C2 | > 100 µM | > 100 µM | 
38 | O=C(NC12CC3CC(CC(C3)C1)C2)C(=O)c1c[nH]c2ccc(Br)cc12 | > 200 µM | 25.7 µM | 
39 | O=CC1=C(C(=O)OC(c2ccccc2)c2ccccc2)N2C(=O)[C@@H](NC(=O)Cc3cccs3)[C@H]2SC1 | > 200 µM | 123 µM | 
40 | O=S(=O)(Nc1nnc2ccc3ccccc3n12)c1ccc(Cl)cc1S | > 200 µM | 105 µM | 
41 | NC(=S)N/N=C/c1c(O)c2cc(Cl)ccc2[nH]c1=O | > 200 µM | 93.3 µM | 
42 | COc1ccc(N=Nc2ccc3oc(=O)c(C(=O)Nc4ccc(OC)cc4)cc3c2)cc1 | > 200 µM | 20 µM | 
43 | COC(=O)/C([Se]c1c(C)cc(C)cc1C)=C(\[Se]c1c(C)cc(C)cc1C)C(=O)OC |  |  | inactive
44 | O=C(O)c1ccc2c(c1)S(=O)(=O)NC2=O | > 1100 µM | > 1100 µM | 

Row | Structure (SMILES) | EC50 | IC50 | outcome
45 | CC(CCC(=O)O)c1ccc(Br)cc1 (stereo not given) |  |  | inactive
46 | COc1cccc(C2CC(C)=Nc3c(ccc4c3C(=O)c3ccccc3C4=O)N2)c1O (stereo not given) | > 9.12 µM | > 9.12 µM | 
47 | N#CCCC[Si]12OCCN(CCO1)CCO2 |  |  | inactive
48 | c1ccc(-n2nc3ccc4nonc4c3n2)cc1 | > 200 µM | > 200 µM | 
49 | O=C(NNC(=O)c1ccco1)c1ccco1 | > 200 µM | > 200 µM | 
50 | COC(=O)NN/C=C(\C=Nc1ccccc1)[N+](=O)[O-] | > 97.7 µM | 87.1 µM | 
51 | CCOP(=O)(OCC)/C(=C\NC(=S)N=Nc1c(O)[nH]c2ccccc12)C(=O)OC | > 200 µM | 117 µM | 
52 | Cc1cc2nc3c(C(OC4OC(CO)C(O)C(O)C4O)C(O)CO)nn(-c4ccc(F)cc4)c3nc2cc1C (stereo not given) |  |  | inactive
53 | O=C(O)c1ccccc1SSc1ccccc1C(=O)O | 112 µM and > 589 µM and > 200 µM | 589 µM and > 589 µM and > 200 µM | 
54 | CC[C@]1(O)C[C@H]2CN(CCc3c([nH]c4ccccc34)[C@@](C(=O)OC)(c3cc4c(cc3OC)N(C)[C@H]3[C@@](O)(C(=O)OC)[C@H](OC(C)=O)[C@]5(CC)C=CCN6CC[C@]43[C@@H]65)C2)C1 | > 0.0302 µM | 0.000355 µM | 
55 | NC(=O)C(=O)N/N=C1/c2ccccc2CC1C1(O)C(=O)Nc2c(Cl)cc(Cl)cc21 (stereo not given) | > 12 µM | > 12 µM | 
56 | CCOC(=O)c1oc2cc(O)ccc2c(=O)c1-c1ccc(OC)c(OC)c1 | > 200 µM | 51.3 µM | 
57 | O=C(O)c1[nH]c(=O)[nH]c(=O)c1I | > 200 µM | > 200 µM | 
58 | CC(=O)OC1CCC(OC(C)=O)[C@H]2[C@@H]1[C@@H]1S[C@H]2c2ccccc21 (stereo not given in full) | > 200 µM | 42.7 µM | 
59 | O=S(=O)(c1ccc(NC(=S)Nc2ccccc2)cc1)c1ccc(NC(=S)Nc2ccccc2)cc1 | > 200 µM | > 200 µM | 
60 | CC(=O)OC1CC2CCC1(C)C2(C)C (stereo not given) | > 200 µM | > 200 µM | 
61 | Cc1c(C2CCSc3ccccc3N2)sc2ccccc12 (stereo not given) | > 200 µM | 148 µM | 
62 | S=C(NC1CCCCC1)SSSSC(=S)NC1CCCCC1 | > 91.2 µM | 33.1 µM | 
63 | COC(=O)[C@H](CO)NC(=O)CC/C(C)=C/c1ccccc1 | > 200 µM | 191 µM | 
64 | N#CNC(=NCc1ccccc1)NCc1ccccc1 | 200 µM | 339 µM | 
65 | CC(/C=C/C1OC(=O)C=CC1C)=C\C(C)C/C=C/C(C)=C/C(C)C(=O)C(C)C(O)C(C)C/C(C)=C/C(=O)O (stereo not given) | > 0.02 µM | 0.00631 µM | 
66 | Clc1ccccc1C1SCc2nc3ccccc3n21 (stereo not given) |  |  | inactive

Row | Structure (SMILES) | EC50 | IC50 | outcome
67 | NC(Cc1ccc(OCc2ccccc2)cc1)C(=O)NC(Cc1ccccc1)C(=O)ON1C(=O)CCC1=O (stereo not given) (H-Tyr(Bn)-Phe-OSu; configuration not given here) |  |  | inactive
68 | Clc1ccc(Cl)c(SSc2cc(Cl)ccc2Cl)c1 |  |  | inactive
69 | N#Cc1[nH]c(=O)n(-c2ccc([N+](=O)[O-])cc2)c1N | > 200 µM | > 200 µM | 
70 | COc1ccc(N=C2C(=Nc3ccc(OC)cc3)N(c3ccc(N(C)C)cc3)C(=S)N2c2ccc(OC)cc2)cc1 | > 20 µM | 0.692 µM | 
71 | C=CCOC(=O)CC[N+]1=CCC(c2ccccc2)(c2ccccc2)O1 | > 29.5 µM | > 29.5 µM | 
72 | O=C1CCCCCC1CC(Sc1ccccc1)Sc1ccccc1 (stereo not given) | > 200 µM | 16.2 µM | 
73 | C=CC(C)(C)C1(CC(OC)OC)C(=O)N(C)c2ccccc21 (stereo not given) | > 200 µM | > 200 µM | 
74 | COC1CC(C)(NC(=O)C(F)(F)F)C2OC(c3ccccc3)OCC2O1 (stereo not given) | > 200 µM | > 200 µM | 
75 | Cc1ccccc1C1=C/C(=C(\SS/C(C(=O)c2ccc(OCC(=O)O)c(Cl)c2Cl)=C2\C=C(c3ccccc3C)SS2)C(=O)c2ccc(OCC(=O)O)c(Cl)c2Cl)SS1 | > 26.9 µM | > 26.9 µM | 
76 | Cc1cc(C(=O)O)c(C)cc1SSc1cc(C)c(C(=O)O)cc1C | > 105 µM | 75.9 µM | 
77 | O=C(O)CCC(=O)OCCNCCOC(=O)CCC(=O)O |  |  | inactive
78 | CCCCn1c2ccccc2c2ccc3c(c21)C(=O)C=CC3=O | > 17.4 µM | > 17.4 µM | 
79 | COc1cccc(NC(=O)CC(=O)N2N=C(N(CCC#N)c3ccc(Cl)cc3)CC2c2ccccc2)c1 (stereo not given) | > 69.2 µM | > 69.2 µM | 
80 | CCOC(=O)NC(Nc1ccc(C(=O)OCC)cc1)(C(F)(F)F)C(F)(F)F | > 200 µM | 17 µM | 
81 | CCCCCCCCCCCCCCCCCCSCC(COP(=O)(O)OP(=O)(O)OCC1OC(n2ccc(=O)[nH]c2=O)CC1N=[N+]=[N-])OC(=O)CCCCCCCCCCCCCCC (stereo not given) | > 209 µM | 186 µM | 
82 | CCOC(=O)c1c(C)c(C(C)=O)c2ccccn12 | > 145 µM | 95.5 µM | 
83 | CC1C(c2ccc3c(c2)OCO3)c2cc3c(cc2OC1N1CCOCC1)OCO3 (stereo not given) | > 200 µM | 10.7 µM | 
84 | O=C1NC(N/N=C\C(O)C(O)C(O)C(O)CO)=N/C1=C\c1ccc(Cl)cc1 (stereo not given) | > 200 µM | 33.9 µM | 
85 | C[N+]1(CC(O)(O)C(F)F)CCOCC1 | > 200 µM | > 200 µM | 
86 | COc1cc2c(cc1OC)[C@H]1C(COC(=O)c3ccccc3)CSC(=Nc3ccccc3)N1CC2 (stereo not given in full) | > 10.2 µM | > 10.2 µM | 
